Reference: patent US20070225171A1 (priority 2001, published 2007)

How the values were obtained:
[1] = system: tobacco dark fired cultivar KY 160 (non-GE control); assay: Yield assay, 2,4-D sprayed on non-transgenic tobacco; format: in vivo, Nicotiana tabacum; conditions: isooctyl ester formulation; for Plant Yield / Corrected Leaf Yield / Corrected Plant Yield / Leaf Yield: dry matter 21 days after spraying; for Percent Leaf Yield: 21 days after spraying
Procedure: (§1) The use of exogenously supplied synthetic auxins on agronomic crops to elicit direct non-herbicidal effects, with an emphasis on the potential enhancement of yield, was assessed using genetically-engineered (GE) tobacco plant lines expressing synthetic auxin metabolizing genes. Non-GE controls were used, permitting separation of the herbicidal and biological properties of the exogenously supplied synthetic auxins. Tobacco was utilized to model dry matter yield.
(§2) The research was conducted in a single phase entailing characterization of response variables when plants were subjected to maximum (1× rate=1 pound/acre of active ingredient) and low (¼×=4 ounces/acre of active ingredient) rates of exogenously applied 2,4-dichlorophenoxyacetic acid (2,4-D). GE lines of tobacco (dark fired cultivar “KY 160”) expressing a synthetic gene for auxin metabolism (SAD1 or SAD2) were used, along with non-GE lines of the same genotype as control material. Commercial tobacco production has long utilized decapitation (“topping”) to initiate a predictable increase in leaf weight, thickness, and dry matter yield. This yield increase is dependent upon variables, such as genotype and fertility. By utilizing controls of the same genotype and a fixed level of fertility, significant yield variation responses should be attributable to the treatment (exogenous auxin herbicide application).
(§3) The overall experimental design was comprised of three parallel completely randomized designs with spray rate and genotype as the main factors. Three replications were performed for each treatment within each experiment. Each replication was the average measurement of six plants. The tobacco lines were allowed to advance to the 6-8 leaf stage. Upon reaching this stage, the primary meristem was removed along with lower leaves so that only 4 leaves remained. Plants were then sprayed with herbicide and permitted to grow for an additional 21 days. At the end of this period, dry matter yields for both leaf and the whole plant were measured.
(§4) Yield data recorded for tobacco were leaf dry matter, leaf number, and total dry matter. Corrected plant yield and corrected leaf yield were calculated for each replication as the leaf dry matter divided by leaf number then multiplied by the expected number of leaves (6 plants×4 leaves=24). This corrected leaf yield was then added to stem yield fraction (arrived at by subtracting actual leaf yield from total plant yield) to create a corrected total plant yield. All tobacco yield measurements were recorded in grams after a 7-day drying period in ambient air dryers.
(§5) Seed of non-transgenic tobacco lines were germinated on MS03 (MS salts, B5 vitamins, 3% sucrose) medium. Transgenic seeds were germinated on the same medium augmented with 300 mg/L kanamycin monosulfate to allow detection of any seedlings failing to carry the transgene. Thirty days after germination, seedlings were transplanted to the greenhouse into flats holding 8 trays of 6 plants each for a total of 48 plants. Plants were permitted to grow for approximately 45 days, at which time 6-8 leaves had developed. Prior to spraying, the top of the plant retaining the uppermost two leaves was removed (decapitated) resulting in the retention of 4 fully-extended leaves for each plant.
(§6) For spray assays and for the yield studies, spraying was performed in an Allen Machine Works Spray Cabinet. Spray rates were established as the equivalent of 16 ounces of active ingredient per acre (1× rate), 4 ounces active ingredient/acre (¼× rate), and the control (no active ingredient per acre or 0×). The herbicide used was 2,4-D, isooctyl ester formulation (3.9 pounds of active ingredient/gallon) at equivalent rates noted above. To achieve this equivalent 1× field rate, 500 microliters of herbicide were diluted into a total volume of 50 ml. The ¼× field rate was achieved by diluting 125 microliters of herbicide in a 50 ml volume. […]

[2] = system: SAD2 - Cultivar UC82B genetically engineered to express a synthetic gene for tolerance to phenoxy herbicides; assay: Fruit yield assay, 2,4-D sprayed on transgenic SAD2 tomato; format: in vivo, Lycopersicon esculentum; conditions: for Total Yield (Fresh Fruit Yield) / Fruit Weight (Average Fresh Fruit Weight) / Total Flowers / Fruit per Plant / Total Fruit No.: SAD2 tomato; for Total Yield (Fresh Fruit Yield): harvested over 60 days; for Fruit Weight (Average Fresh Fruit Weight) / Total Flowers / Fruit per Plant / Total Fruit No.: 60 days; for Total Flowers: Flower Number/plant/replication/treatment; for Fruit per Plant: Fruit Number/plant/replication/treatment; for Total Fruit No.: Total Fruit Number/replication/treatment
Source text: The use of exogenously supplied synthetic auxins on agronomic crops to elicit direct non-herbicidal effects was further assessed using genetically-engineered tomato plant lines expressing a synthetic auxin metabolizing gene, and non-genetically-engineered controls. Tomato was utilized to model fruit retention (fruit set) and fruit yield. The transgenic tomato line was utilized in the T2 generation with the transgene fixed in a homozygous fashion. The tomato genotype UC82L was utilized as the control, as well as the background for tranformation with the pPZP211-PNPT-311-SAD2 binary plasmid. This genotype was chosen because it is more likely to closely approximate the behavior of field-grown tomatoes than some short-life-cycle laboratory strains of tomato.
In the same manner as for tobacco, the research was conducted in a single phase entailing characterization of response variables when plants were subjected to the maximum (1× rate=1 pound/acre of active ingredient) and low (¼×=4 ounces/acre of active ingredient) rates of exogenously applied 2,4-D. The overall experimental design was comprised of three parallel completely randomized designs with spray rate and genotype as the main factors. Three replications were performed for each treatment within each experiment. Each replication was the average of three plants that were harvested over a period of 60 days. Fruit number, fruit weight and flower number were measured directly, with average fruit weight and average fruit per plant being derived by dividing fruit weight and fruit number within a replication by the number of plants (3). Tomato fruit yield was measured on fresh fruit and recorded in grams.
The binary plasmid pPZP211-PNPT-311-SAD2 used for transformation was the same as that used in Example 1, and tomato (Lycopersicon esculentum) cultivar UC82B (a cultivar nearly identical to UC82L) was transformed by Agrobacterium-mediated transformation of leaf tissue with the binary plasmid as described in Example 1. Transgenic plants were produced from the transformed leaf tissue as described in Example 1.
Non-transgenic and transgenic seed were germinated and grown as described in Example 1 for tobacco. The transgenic tomato line was utilized in the T2 generation with the transgene fixed in a homozygous fashion.
The plants with 4 fully-extended leaves retained were sprayed as described in Example 1. Each replication (3 plants) was sprayed independently and permitted to dry before being moved back to the greenhouse for further growth for 60 days.
Fruit number, fruit weight, and flower number were measured directly during this 60-day period. Tomato fruit yield was measured on fresh fruit and recorded in grams.

[3] = system: SAD2 - Cultivar KY 160 genetically engineered to express a modified version of the SAD1 synthetic gene; assay: Yield assay, 2,4-D sprayed on transgenic SAD2 tobacco; format: in vivo, Nicotiana tabacum; conditions: for Plant Yield / Percent Leaf Yield / Corrected Leaf Yield / Corrected Plant Yield / Leaf Yield: SAD2 tobacco, isooctyl ester formulation; for Plant Yield / Corrected Leaf Yield / Corrected Plant Yield / Leaf Yield: dry matter 21 days after spraying; for Percent Leaf Yield: 21 days after spraying
Procedure: as §1, §2, §3, §4, §5, §6

[4] = 2,4-D rate 1X (1 pound active ingredient/acre)
[5] = 2,4-D rate ¼X (4 ounces active ingredient/acre)

With `O=C(O)COc1ccc(Cl)cc1Cl` [2,4-D, 2,4-dichlorophenoxyacetic acid] the “Plant Yield” value [1, 4] was 27.7 grams/plant/replication/treatment, the “Percent Leaf Yield” value ([1]; 2,4-D rate 1X) was 33.2% and the “Corrected Leaf Yield” value ([1]; 2,4-D rate 1X) was 9.4 grams/plant/replication/treatment. The “Corrected Plant Yield” value ([1]; 2,4-D rate 1X) was 28.2 grams/plant/replication/treatment, the “Leaf Yield” value ([1]; 2,4-D rate 1X) was 9.0 grams/plant/replication/treatment and the “Plant Yield” value [1, 5] was 33.1 grams/plant/replication/treatment. The “Percent Leaf Yield” value ([1]; 2,4-D rate ¼X) was 35.2%, the “Corrected Leaf Yield” value ([1]; 2,4-D rate ¼X) was 12.2 grams/plant/replication/treatment and the “Corrected Plant Yield” value ([1]; 2,4-D rate ¼X) was 34.3 grams/plant/replication/treatment. The “Leaf Yield” value ([1]; 2,4-D rate ¼X) was 11.0 grams/plant/replication/treatment, the “Total Yield (Fresh Fruit Yield)” value ([2]; spray rate 1X (1 pound active ingredient/acre), 2,4-D isooctyl ester formulation) was 131.9 grams/plant/replication/treatmen and the “Fruit Weight (Average Fresh Fruit Weight)” value ([2]; spray rate 1X) was 13.7 grams/fruit/plant/replication/treatment. For the same compound, the “Total Flowers” value ([2]; spray rate 1X) was 19.7, the “Fruit per Plant” value ([2]; spray rate 1X) was 2.4 and the “Total Fruit No.” value ([2]; spray rate 1X) was 9.7. For the same compound, the “Total Yield (Fresh Fruit Yield)” value ([2]; spray rate ¼X (4 ounces active ingredient/acre), 2,4-D isooctyl ester formulation) was 122.9 grams/plant/replication/treatmen, the “Fruit Weight (Average Fresh Fruit Weight)” value ([2]; spray rate ¼X) was 14.4 grams/fruit/plant/replication/treatment and the “Total Flowers” value ([2]; spray rate ¼X) was 17.3. The “Fruit per Plant” value ([2]; spray rate ¼X) was 2.2, the “Total Fruit No.” value ([2]; spray rate ¼X) was 8.7 and the “effect on average fruit weight” value ([2]; transgenic line, ¼× rate) was “increase in average fruit weight”. For the same compound, the “effect on total flower number” value ([2]; transgenic lines, ¼× rate) was “increasing the number of flowers”, the “Plant Yield” value [3, 4] was 48.8 grams/plant/replication/treatment and the “Percent Leaf Yield” value ([3]; 2,4-D rate 1X) was 42.2%. For the same compound, the “Corrected Leaf Yield” value ([3]; 2,4-D rate 1X) was 21.6 grams/plant/replication/treatment, the “Corrected Plant Yield” value ([3]; 2,4-D rate 1X) was 51.0 grams/plant/replication/treatment and the “Leaf Yield” value ([3]; 2,4-D rate 1X) was 19.4 grams/plant/replication/treatment. For the same compound, the “Plant Yield” value [3, 5] was 43.9 grams/plant/replication/treatment, the “Percent Leaf Yield” value ([3]; 2,4-D rate ¼X) was 42.2% and the “Corrected Leaf Yield” value ([3]; 2,4-D rate ¼X) was 19.1 grams/plant/replication/treatment. The “Corrected Plant Yield” value ([3]; 2,4-D rate ¼X) was 45.2 grams/plant/replication/treatment, the “Leaf Yield” value ([3]; 2,4-D rate ¼X) was 17.8 grams/plant/replication/treatment and the “effect on yield” value ([3]; transgenic material (SAD2) sprayed with either the ¼× or 1× rate) was “significant increase in yield”.
